{"source": "patent US5183828A", "about": "“Polyhydroxybenzoic acid derivatives” (priority 1990, dated 1993)", "key": {"SRS-A biosynthesis": {"system": "SRS-A biosynthesis", "test": "effect of drug on SRS-A biosynthesis", "assay_type": "in vivo", "conditions": "10 mg/kg, i.v.; ovalbumin-sensitized guinea-pigs", "protocol": "Compounds according to this invention were also able to affect SRS-A biosynthesis, also in vivo. In this determination, male Hartley guinea-pigs (200-300 g) were sensitized with a single intraperitoneal injection of ovalbumin (10 mg) in 1 ml of 0.9% w/v NaCl solution (saline). The animals were used for study on days 28-45, following the ovalbumin injection. Guinea-pigs this sensitized were anaesthetized with an intraperitoneal injection of urethane (2 g/kg), and the carotid artery and jugular vein cannulated for measurement of arterial blood pressure and to facilitate intravenous drug administration. Animals were ventilated with a Harvard small animal respirator set at a stroke volume of 2.5 cc and a rate of 40 breaths per min. Ventilatory pressure (cmH2 O) was measured with a Statham pressure transducer from a side arm off the tracheal cannula. […]\nPlasma SRS-A was determined as follows: Arterial blood was drawn from the carotid artery of the guinea-pigs into sodium citrate (0.38%) containing indomethacin (10^-4 M). […]\nSRS-A was bioassayed on the guinea-pig ileum incubated in Tyrode solution containing 10^-6 M atropine sulphate and 10^-6 M pyrilamine maleate and aerated with 95% O2 and 5% CO2. Changes in tension were measured isotonically with an Adaps rotary motion transducer and recorded on a Linear recorder. […]"}, "Δ^5-lipoxygenase": {"target": "T1, Δ^5-lipoxygenase (Rattus norvegicus, UniProt P12527)", "T1 construct": "supernatant fraction of lysed rat basophilic leukemia (RBL-1) cells; endogenous in cells; host or cells: RBL-1 cells, 49,000 g supernatant of homogenate", "T1 sequence (P12527 1-673)": "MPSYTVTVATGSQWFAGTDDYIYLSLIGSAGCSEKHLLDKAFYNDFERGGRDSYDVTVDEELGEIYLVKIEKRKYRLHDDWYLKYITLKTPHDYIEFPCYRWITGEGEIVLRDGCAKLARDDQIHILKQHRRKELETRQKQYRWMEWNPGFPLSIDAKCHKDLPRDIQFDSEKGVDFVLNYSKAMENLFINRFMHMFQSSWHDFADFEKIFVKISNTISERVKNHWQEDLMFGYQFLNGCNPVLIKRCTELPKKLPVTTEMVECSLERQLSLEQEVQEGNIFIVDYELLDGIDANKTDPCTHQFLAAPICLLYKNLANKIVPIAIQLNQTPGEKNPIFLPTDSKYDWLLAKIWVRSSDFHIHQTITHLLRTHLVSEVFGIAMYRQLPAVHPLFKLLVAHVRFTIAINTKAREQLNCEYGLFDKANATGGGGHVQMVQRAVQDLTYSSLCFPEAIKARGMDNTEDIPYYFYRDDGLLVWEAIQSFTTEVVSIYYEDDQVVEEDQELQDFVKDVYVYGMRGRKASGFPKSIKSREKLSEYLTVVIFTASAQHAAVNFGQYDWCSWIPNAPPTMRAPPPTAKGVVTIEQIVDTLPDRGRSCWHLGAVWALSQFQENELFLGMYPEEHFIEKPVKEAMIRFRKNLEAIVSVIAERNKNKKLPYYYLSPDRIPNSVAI", "test": "ability to inhibit Δ^5-lipoxygenase", "assay_type": "biochemical", "conditions": "RBL-1 cell supernatant", "protocol": "This enzyme is believed to initiate the synthesis of slow reacting substance of […]), an important mediator in the pathogenesis of asthma. Thus, a drug capable of inhibiting this enzyme would also help to prevent asthmatic attacks. In this determination, Δ^5 -lipoxygenase was derived from the supernatant fraction of lysed rat basophilic leukemia (RBL-1) cells. […] The Δ^5 -lipoxygenase was derived from RBL-1 cells which were lysed by homogenization in ice-cold buffer (50 mM Tris-HCl buffer, pH 7.2, containing 1 mM EDTA and 14 uM indomethacin). The homogenate was centrifuged at 4 ° C. at 49,000 g for 20 min and the resulting supernatant fraction was used as the source of Δ^5 -lipoxygenase. The enzyme was assayed at 37° using 6.7 uM (0.39 uCi/ml) [1-14C]arachidonic acid as the substrate in 50 mM Tris-HCl buffer, pH 7.2, containing 1 mM gluthatione, 3 mM CaCl2, 14 uM indomethacin, and 0.25 to 0.50 mM EDTA. […] The effect of compounds on Δ^5 -lipoxygenase activity was determined by preincubating the enzyme for 10 min at 30° in the presence or absence of various concentrations of the drug prior to addition of substrate."}, "L1210 leukemia": {"system": "L1210 leukemia", "test": "antitumor activity in L1210 leukemia (percent increase in survival time), Table 2", "assay_type": "in vivo, mice", "conditions": "Mus musculus, L1210, 192 h, 8 days; for ILS at 300 mg/kg: 300 mg/kg ip daily", "protocol": "Testing of the compounds of this invention against L-1210 lymphoid leukemia were carried out as follows: L-1210 leukemia was maintained by weekly passage of 10^5 L-1210 cells intraperitoneally into DBA/2 mice. Diluted ascitic fluid, 0.1 ml. (10^5 cells), was administered ip to female B6D2 F1 mice weighing about 20 g. Drugs were administered ip 24 hours after tumor transplantation and injections were continued daily for a total of eight days. A group of control mice receiving only the injection medium were maintained. Table 2 which follows gives the antitumor activity against L-1210 leukemia for certain compounds of this invention. In the table, column 1 gives the name of the compound, column 2 the dose in mg./kg., and column 3 the percent increase in survival time over controls at each dose level."}, "[1]": {"test": "free radical scavenging ability (destruction of diphenylpicrylhydrazyl), Table 7", "conditions": "100 μM diphenylpicrylhydrazyl in acetone; test compound 25 μM, 2.5 μM (footnote)", "text": "It is believed that the antineoplastic activity of the compounds of this invention is due in parts to their ability to scavenge free-radicals. Additionally, the compounds of this invention are cancer protective agents and this utility also may be a manifestation of their free-radical scavenging capability. Free-radical scavenging agents may also be useful in detoxifying mammals in whom an excess of free radicals is a cause and/or result of the toxicity. Other possible uses of free radical scavengers are to inhibit protaglandin transformation, leucotriene interconversion and lipogenesis, to act as inflammatory modulators and as food additive or preservatives to prevent lipid oxidation. The free radical scavenging ability of the compounds of the invention was determined by measuring the destruction of the stable free radical, diphenylpicrylhydrazyl, in the presence of the test compound in a manner similar to that reported by […] and Herzmann, Naturwiss, 47, 133-134 (1960). […] The test compound was added at a final concentration of 25 μM and the rate of reduction of absorpotion at […] was observed. Table 7 below gives the free radical scavenging abilities of the compounds of this invention expresses as the initial rate of decrease in optical density units/min."}}, "note": "Structures can show the parent of a compound that is named as a salt.", "data": [{"compound": "NC(=NO)c1ccc(O)c(O)c1", "note": "[3,4-dihydroxybenzamidoxime.HCl, 3,4-dihydroxybenzamidoximehydrochloride]", "values": [{"measurement": "% Inhibition of SRS-A Biosynthesis", "setting": "SRS-A biosynthesis", "result": 25, "unit": "%"}, {"measurement": "inhibition at 1 µM", "setting": "Δ^5-lipoxygenase; 1 uM", "result": 25, "unit": "%"}, {"measurement": "inhibition at 10 µM", "setting": "Δ^5-lipoxygenase", "result": 94, "unit": "%"}, {"measurement": "ILS at 157 mg/kg", "setting": "L1210 leukemia; 157 mg/kg ip daily", "result": 132, "unit": "%"}, {"measurement": "ILS at 200 mg/kg", "setting": "L1210 leukemia; 200 mg/kg ip daily", "result": 43.5, "unit": "%"}, {"measurement": "ILS at 238 mg/kg", "setting": "L1210 leukemia; 238 mg/kg ip daily", "result": 46.9, "unit": "%"}, {"measurement": "ILS at 300 mg/kg", "setting": "L1210 leukemia", "result": 73.9, "unit": "%"}, {"measurement": "initial rate of decrease in optical density (518 nm)", "setting": "[1]", "result": 0.718, "unit": "units/min."}]}, {"compound": "CCOC(=N)c1cc(O)c(O)c(O)c1", "note": "[ethyl 3,4,5-trihydroxybenzamidate-HCl, Ethyl 3,4,5-trihydroxybenzamidate hydrochloride]", "values": [{"measurement": "% Inhibition of SRS-A Biosynthesis", "setting": "SRS-A biosynthesis", "result": 29, "unit": "%"}, {"measurement": "inhibition at 10 µM", "setting": "Δ^5-lipoxygenase", "result": 86, "unit": "%"}, {"measurement": "ILS at 300 mg/kg", "setting": "L1210 leukemia", "result": 42.3, "unit": "%"}, {"measurement": "ILS at 450 mg/kg", "setting": "L1210 leukemia; 450 mg/kg ip daily", "result": 58.4, "unit": "%"}, {"measurement": "initial rate of decrease in optical density (518 nm)", "setting": "[1]", "result": 3.730, "unit": "units/min."}]}]}
